The results in this text go back to the supplement of paper PMC12076712.

SMILES strings stand for the structures.

Common to all, as to assay: pIC50, kinobeads binding competition
One experiment addresses JAK1 (UniProt P23458). In short, it runs like this: (§1)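 Live Jurkat cells were treated with nine compound concentrations (top 30 μM, 1:4 steps) or DMSO for 60 min at 37 °C before lysis. Alternatively, Jurkat lysate or a 1:1:1:1 HEK293/K-562/HepG2/placenta lysate mix was incubated with nine concentrations (top 30 μM, 1:5 steps) for 60 min at 4 °C. Kinobeads-bound proteins were digested and quantified by TMT10 LC-MS/MS. pIC50 came from logistic dose-response fits (R drc package) of fold changes versus DMSO, in biological duplicates.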

The target of a further experiment is CDK9 (UniProt P50750). In short, it runs like this: as §1
The target of the next experiment is T1, TP53RK (UniProt Q96S44).
T1 sequence (whole entry): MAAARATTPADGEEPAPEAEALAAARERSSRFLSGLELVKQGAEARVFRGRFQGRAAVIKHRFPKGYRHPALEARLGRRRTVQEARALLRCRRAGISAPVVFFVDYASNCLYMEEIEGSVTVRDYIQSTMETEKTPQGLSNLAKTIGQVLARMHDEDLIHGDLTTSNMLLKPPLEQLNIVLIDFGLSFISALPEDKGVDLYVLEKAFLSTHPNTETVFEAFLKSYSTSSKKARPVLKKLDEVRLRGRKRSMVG
A digest of the protocol: as §1

In the next experiment the target is TYK2 (UniProt P29597). In short, it runs like this:
as §1

The target in a further experiment is LYN (UniProt P07948). In short, it runs like this: as §1
A further experiment has as its target PCTK3 (UniProt Q07002). A digest of the protocol: as §1
The next experiment concerns the target UniProt P07947. A digest of the protocol: as §1
Another experiment concerns the target T2, TGFBR1 (UniProt P36897).
T2 sequence (whole entry): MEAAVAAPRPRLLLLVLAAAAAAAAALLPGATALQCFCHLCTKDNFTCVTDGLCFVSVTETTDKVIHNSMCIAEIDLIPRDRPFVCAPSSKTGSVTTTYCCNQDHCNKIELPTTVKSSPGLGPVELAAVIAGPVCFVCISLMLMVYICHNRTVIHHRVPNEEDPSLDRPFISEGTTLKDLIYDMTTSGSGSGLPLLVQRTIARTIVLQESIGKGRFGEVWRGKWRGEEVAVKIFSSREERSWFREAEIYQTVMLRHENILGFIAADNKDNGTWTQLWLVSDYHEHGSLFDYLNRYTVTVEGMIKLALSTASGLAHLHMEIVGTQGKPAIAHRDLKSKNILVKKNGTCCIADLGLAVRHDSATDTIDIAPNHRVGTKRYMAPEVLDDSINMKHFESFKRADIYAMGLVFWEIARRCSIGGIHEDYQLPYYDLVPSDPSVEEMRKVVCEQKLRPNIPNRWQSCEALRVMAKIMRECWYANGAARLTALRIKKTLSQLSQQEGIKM
In short, it runs like this: as §1

For the next experiment, the target named is UniProt P48730. In short, it runs like this:
as §1

For the next experiment, the target named is T3, MERTK (UniProt Q12866).
T3 sequence (whole entry): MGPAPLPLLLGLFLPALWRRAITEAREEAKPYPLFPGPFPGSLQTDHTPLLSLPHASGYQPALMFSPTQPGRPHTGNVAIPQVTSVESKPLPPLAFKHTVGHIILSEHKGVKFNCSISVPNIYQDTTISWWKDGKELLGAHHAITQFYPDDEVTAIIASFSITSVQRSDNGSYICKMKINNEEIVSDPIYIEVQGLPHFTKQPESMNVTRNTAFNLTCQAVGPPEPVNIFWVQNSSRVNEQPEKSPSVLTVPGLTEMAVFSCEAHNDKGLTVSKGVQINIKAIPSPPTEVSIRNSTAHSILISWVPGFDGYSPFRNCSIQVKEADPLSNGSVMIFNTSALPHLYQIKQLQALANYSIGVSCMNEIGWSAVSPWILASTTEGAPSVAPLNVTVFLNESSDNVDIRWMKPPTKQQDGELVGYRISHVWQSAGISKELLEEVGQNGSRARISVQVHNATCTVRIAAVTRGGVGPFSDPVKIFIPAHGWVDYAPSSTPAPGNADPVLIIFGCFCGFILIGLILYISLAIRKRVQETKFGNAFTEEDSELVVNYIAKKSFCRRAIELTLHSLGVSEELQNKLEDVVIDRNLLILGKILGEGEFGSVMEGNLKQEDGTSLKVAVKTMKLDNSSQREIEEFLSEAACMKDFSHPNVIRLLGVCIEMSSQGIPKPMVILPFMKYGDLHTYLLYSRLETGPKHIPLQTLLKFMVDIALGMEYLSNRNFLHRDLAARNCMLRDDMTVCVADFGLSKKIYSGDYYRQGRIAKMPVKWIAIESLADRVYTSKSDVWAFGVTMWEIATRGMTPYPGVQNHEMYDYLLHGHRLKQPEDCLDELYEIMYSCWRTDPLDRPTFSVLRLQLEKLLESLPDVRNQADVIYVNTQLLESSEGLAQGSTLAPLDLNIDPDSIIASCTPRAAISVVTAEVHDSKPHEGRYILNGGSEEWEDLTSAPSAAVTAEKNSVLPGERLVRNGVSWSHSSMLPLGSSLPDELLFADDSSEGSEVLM
A digest of the protocol: as §1

The target in another experiment is EGFR (UniProt P00533). Conditions: cell material: Lysate mix. In short, it runs like this:
as §1

Chain of PCTK3 (Q07002 whole entry): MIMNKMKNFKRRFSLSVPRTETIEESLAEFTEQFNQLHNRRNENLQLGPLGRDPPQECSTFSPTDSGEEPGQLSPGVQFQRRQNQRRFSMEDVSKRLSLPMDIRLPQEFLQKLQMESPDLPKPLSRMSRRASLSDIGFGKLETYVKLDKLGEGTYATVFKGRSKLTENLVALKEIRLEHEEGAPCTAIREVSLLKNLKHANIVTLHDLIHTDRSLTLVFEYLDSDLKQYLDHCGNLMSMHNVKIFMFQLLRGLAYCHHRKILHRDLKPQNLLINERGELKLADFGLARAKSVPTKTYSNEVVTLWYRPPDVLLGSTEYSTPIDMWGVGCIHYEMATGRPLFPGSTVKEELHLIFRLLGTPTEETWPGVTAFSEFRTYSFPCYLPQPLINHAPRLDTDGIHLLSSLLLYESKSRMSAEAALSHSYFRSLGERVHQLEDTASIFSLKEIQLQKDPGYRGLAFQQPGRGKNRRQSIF
Chain of CDK9 (P50750 whole entry): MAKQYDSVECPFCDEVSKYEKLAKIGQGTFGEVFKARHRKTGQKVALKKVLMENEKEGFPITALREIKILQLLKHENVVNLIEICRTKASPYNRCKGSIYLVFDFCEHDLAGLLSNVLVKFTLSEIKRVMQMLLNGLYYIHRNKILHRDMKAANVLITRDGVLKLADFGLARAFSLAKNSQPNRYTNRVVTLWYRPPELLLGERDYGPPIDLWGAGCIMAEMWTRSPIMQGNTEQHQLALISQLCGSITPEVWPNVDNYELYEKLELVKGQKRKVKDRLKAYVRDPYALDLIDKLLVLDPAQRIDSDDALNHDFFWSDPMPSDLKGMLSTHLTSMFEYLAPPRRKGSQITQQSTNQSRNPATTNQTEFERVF
Chain of EGFR (P00533 whole entry): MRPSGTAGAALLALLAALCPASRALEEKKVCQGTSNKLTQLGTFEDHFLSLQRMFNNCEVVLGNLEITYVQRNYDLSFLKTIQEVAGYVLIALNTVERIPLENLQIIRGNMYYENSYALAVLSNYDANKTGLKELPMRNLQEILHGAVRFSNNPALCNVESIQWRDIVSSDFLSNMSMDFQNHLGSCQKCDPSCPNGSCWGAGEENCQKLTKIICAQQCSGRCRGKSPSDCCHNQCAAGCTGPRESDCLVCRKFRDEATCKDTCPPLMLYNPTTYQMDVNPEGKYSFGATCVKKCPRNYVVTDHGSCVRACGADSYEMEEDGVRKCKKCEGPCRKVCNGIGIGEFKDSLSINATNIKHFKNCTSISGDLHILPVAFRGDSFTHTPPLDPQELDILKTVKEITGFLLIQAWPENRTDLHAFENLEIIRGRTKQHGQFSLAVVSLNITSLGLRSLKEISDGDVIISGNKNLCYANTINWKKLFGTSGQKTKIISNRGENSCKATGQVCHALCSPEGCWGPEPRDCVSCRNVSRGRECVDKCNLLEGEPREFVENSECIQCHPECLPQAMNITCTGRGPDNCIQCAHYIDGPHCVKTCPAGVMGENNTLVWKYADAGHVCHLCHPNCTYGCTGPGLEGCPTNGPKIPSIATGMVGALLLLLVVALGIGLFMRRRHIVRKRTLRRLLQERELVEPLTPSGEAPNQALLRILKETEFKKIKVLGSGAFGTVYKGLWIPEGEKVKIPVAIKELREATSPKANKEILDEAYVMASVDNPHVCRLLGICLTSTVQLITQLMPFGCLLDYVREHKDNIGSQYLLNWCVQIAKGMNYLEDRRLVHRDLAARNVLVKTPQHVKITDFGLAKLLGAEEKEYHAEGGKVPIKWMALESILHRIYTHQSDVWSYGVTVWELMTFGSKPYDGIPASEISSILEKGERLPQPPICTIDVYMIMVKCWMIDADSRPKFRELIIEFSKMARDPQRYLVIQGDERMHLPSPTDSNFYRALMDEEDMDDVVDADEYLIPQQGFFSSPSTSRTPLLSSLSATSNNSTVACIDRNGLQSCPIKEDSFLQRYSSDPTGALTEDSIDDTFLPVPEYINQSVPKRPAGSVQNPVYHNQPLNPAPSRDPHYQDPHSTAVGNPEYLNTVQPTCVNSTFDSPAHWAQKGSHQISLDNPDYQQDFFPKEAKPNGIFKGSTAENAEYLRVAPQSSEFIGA
Chain of UniProt P48730 (P48730 whole entry, looked up): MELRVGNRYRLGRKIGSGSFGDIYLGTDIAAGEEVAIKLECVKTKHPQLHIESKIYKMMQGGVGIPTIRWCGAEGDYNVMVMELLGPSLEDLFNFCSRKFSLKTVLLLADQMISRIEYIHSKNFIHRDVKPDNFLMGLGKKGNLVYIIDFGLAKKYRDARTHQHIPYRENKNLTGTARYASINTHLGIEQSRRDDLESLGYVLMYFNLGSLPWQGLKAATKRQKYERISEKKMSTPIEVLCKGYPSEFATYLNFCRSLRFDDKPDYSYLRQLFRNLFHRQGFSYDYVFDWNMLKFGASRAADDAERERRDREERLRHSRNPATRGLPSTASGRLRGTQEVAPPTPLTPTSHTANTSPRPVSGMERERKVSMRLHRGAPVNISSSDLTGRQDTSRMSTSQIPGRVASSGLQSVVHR
Chain of LYN (P07948 whole entry, looked up): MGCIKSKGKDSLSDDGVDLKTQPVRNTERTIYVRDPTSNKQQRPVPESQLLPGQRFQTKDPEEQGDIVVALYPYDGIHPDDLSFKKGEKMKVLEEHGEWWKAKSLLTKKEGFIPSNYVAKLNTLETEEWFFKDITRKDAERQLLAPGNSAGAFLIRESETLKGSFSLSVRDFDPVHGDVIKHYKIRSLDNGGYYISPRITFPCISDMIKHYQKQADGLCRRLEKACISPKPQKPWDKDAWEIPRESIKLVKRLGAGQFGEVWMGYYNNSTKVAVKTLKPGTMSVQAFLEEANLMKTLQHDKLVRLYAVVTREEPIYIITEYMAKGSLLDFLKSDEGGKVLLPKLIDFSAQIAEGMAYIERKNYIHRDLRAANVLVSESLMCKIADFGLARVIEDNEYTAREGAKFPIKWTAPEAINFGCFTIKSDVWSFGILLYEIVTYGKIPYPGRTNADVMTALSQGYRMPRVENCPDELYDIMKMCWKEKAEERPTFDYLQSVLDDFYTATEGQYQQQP
Chain of UniProt P07947 (P07947 whole entry, looked up): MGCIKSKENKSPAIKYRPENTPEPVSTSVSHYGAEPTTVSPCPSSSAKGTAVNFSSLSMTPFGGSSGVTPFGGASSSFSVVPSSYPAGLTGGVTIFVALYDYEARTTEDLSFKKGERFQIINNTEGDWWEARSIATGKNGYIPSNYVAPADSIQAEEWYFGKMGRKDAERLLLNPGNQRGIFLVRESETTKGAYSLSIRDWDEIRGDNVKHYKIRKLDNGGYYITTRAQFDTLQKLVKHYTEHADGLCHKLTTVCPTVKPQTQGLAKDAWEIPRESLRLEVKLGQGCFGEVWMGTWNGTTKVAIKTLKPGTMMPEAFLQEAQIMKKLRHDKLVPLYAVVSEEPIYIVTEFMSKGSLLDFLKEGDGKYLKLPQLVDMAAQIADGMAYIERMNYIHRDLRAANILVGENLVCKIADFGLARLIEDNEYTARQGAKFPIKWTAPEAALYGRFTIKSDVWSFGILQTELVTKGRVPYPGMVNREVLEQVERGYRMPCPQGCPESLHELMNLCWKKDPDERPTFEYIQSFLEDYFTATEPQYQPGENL
Chain of JAK1 (P23458 whole entry): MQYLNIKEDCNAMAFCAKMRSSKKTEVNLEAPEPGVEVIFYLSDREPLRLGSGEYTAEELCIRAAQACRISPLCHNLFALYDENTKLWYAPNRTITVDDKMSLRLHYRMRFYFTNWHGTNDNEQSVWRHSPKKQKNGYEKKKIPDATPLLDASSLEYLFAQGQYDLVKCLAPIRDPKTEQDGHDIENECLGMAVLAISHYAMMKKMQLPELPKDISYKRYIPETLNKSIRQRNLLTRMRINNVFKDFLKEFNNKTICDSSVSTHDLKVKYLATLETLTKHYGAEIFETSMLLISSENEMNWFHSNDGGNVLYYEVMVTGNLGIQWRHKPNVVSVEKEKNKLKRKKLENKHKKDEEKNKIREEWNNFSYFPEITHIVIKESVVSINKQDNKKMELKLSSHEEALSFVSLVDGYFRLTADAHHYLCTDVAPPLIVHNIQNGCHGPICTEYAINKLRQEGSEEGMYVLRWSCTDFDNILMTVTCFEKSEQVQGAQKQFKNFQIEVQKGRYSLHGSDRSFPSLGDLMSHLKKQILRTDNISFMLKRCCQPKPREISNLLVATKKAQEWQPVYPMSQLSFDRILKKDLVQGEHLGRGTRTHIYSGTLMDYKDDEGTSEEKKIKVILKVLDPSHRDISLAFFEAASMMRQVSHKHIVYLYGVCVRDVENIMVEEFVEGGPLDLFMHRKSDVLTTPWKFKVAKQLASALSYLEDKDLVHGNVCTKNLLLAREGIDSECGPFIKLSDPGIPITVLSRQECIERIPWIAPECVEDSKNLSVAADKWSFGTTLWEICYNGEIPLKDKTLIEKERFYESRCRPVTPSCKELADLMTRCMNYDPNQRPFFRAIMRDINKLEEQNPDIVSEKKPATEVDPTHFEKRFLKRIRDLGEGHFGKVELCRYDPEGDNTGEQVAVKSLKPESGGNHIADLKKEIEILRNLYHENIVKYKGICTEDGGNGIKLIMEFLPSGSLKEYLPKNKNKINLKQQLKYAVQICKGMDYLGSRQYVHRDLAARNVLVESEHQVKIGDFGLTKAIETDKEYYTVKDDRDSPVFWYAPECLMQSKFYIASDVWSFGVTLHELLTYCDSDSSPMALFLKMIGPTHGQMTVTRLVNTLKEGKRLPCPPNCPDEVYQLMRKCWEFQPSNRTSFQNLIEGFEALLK

Consider `C#CCNC(=O)c1cc(Nc2cc(C)[nH]n2)nc(N2CCN(Cc3ccc(S(=O)(=O)F)cc3)CC2)n1`, for which the pIC50 at JAK1 (cell material: Lysate mix) is below 4.52; on CDK9 (cell material: Lysate mix), 4.84; at TP53RK (cell material: Lysate mix) it was below 4.52; on TYK2 (cell material: Lysate mix), below 4.52; on LYN (cell material: Lysate mix), 5.54; at PCTK3 (cell material: Lysate mix) it was below 4.52. The negative logarithm of the IC50 (pIC50) on UniProt P07947 (cell material: Lysate mix) is 6.3; on TGFBR1 (cell material: Lysate mix) it was 4.71; on UniProt P48730 (cell material: Lysate mix), below 4.52; on MERTK (cell material: Lysate mix), below 4.52; at EGFR, 5.56.

Consider `O=C(NCCNC(=O)c1cc(Nc2cc(C3CC3)[nH]n2)nc(N2CCN(Cc3ccc(S(=O)(=O)F)cc3)CC2)n1)OC1CC/C=C/CCC1` (configuration not stated), for which the pIC50 on JAK1 (cell material: Jurkat cells), at JAK1 (cell material: Jurkat lysate), at JAK1 (cell material: Lysate mix), on CDK9 (cell material: Jurkat lysate), on CDK9 (cell material: Lysate mix) and at TP53RK (cell material: Jurkat cells) was below 4.52 each time. Moreover, the pIC50 at TP53RK (cell material: Jurkat lysate), at TP53RK (cell material: Lysate mix), on TYK2 (cell material: Jurkat cells), at TYK2 (cell material: Jurkat lysate), on TYK2 (cell material: Lysate mix) and on LYN (cell material: Jurkat lysate) was below 4.52 in each case. Also, the pIC50 is below 4.52 on LYN (cell material: Lysate mix); 5.7 on PCTK3 (cell material: Jurkat cells); below 4.52 at PCTK3 (cell material: Jurkat lysate); below 4.52 at PCTK3 (cell material: Lysate mix); 6.18 at UniProt P07947 (cell material: Jurkat cells); 4.62 at UniProt P07947 (cell material: Jurkat lysate). Besides, the negative logarithm of the IC50 (pIC50) on UniProt P07947 (cell material: Lysate mix) was 5.24; at TGFBR1 (cell material: Jurkat cells) it was 4.81; at TGFBR1 (cell material: Jurkat lysate), below 4.52; on TGFBR1 (cell material: Lysate mix) it was below 4.52; on UniProt P48730 (cell material: Jurkat cells), below 4.52; at UniProt P48730 (cell material: Jurkat lysate), below 4.52. The pIC50 was below 4.52 on UniProt P48730 (cell material: Lysate mix); 6.04 at MERTK (cell material: Jurkat cells); below 4.52 at MERTK (cell material: Jurkat lysate); below 4.52 on MERTK (cell material: Lysate mix); below 4.52 on EGFR.

Turning to `CCNC(=O)c1cc(Nc2cc(C3CC3)[nH]n2)nc(N2CCN(Cc3ccc(S(=O)(=O)F)cc3)CC2)n1`, the negative logarithm of the IC50 (pIC50) was below 4.52 on JAK1 (cell material: Lysate mix); 4.73 at CDK9 (cell material: Lysate mix); below 4.52 at TP53RK (cell material: Lysate mix); below 4.52 at TYK2 (cell material: Lysate mix); 5.92 at LYN (cell material: Lysate mix); 5.36 on PCTK3 (cell material: Lysate mix). Moreover, the pIC50 is 6.44 on UniProt P07947 (cell material: Lysate mix); 5.41 at TGFBR1 (cell material: Lysate mix); below 4.52 at UniProt P48730 (cell material: Lysate mix); 4.94 on MERTK (cell material: Lysate mix); 5.3 on EGFR.

As to `Cc1cc(Nc2cc(C(=O)NCCNC(=O)OC3CC/C=C/CCC3)nc(N3CCN(Cc4ccc(S(=O)(=O)F)cc4)CC3)n2)n[nH]1` (configuration not stated), the pIC50 at JAK1 (cell material: Lysate mix), on CDK9 (cell material: Lysate mix), on TP53RK (cell material: Lysate mix), on TYK2 (cell material: Lysate mix), on LYN (cell material: Lysate mix) and at PCTK3 (cell material: Lysate mix) was below 4.52 each time. The pIC50 at UniProt P07947 (cell material: Lysate mix) was 5.25; on TGFBR1 (cell material: Lysate mix) it was below 4.52; at UniProt P48730 (cell material: Lysate mix), below 4.52; on MERTK (cell material: Lysate mix) it was below 4.52; on EGFR it was below 4.52.

`CCNC(=O)c1cc(Nc2cc(C)[nH]n2)nc(N2CCN(Cc3ccc(S(=O)(=O)F)cc3)CC2)n1`: the pIC50 was below 4.52 on JAK1 (cell material: Lysate mix); below 4.52 at CDK9 (cell material: Lysate mix); below 4.52 on TP53RK (cell material: Lysate mix); below 4.52 on TYK2 (cell material: Lysate mix); 5.98 on LYN (cell material: Lysate mix); below 4.52 on PCTK3 (cell material: Lysate mix). The pIC50 on UniProt P07947 (cell material: Lysate mix) was 7.16; at TGFBR1 (cell material: Lysate mix), 4.78; at UniProt P48730 (cell material: Lysate mix), below 4.52; on MERTK (cell material: Lysate mix) it was below 4.52; at EGFR it was 5.78.

In the case of `C#CCNC(=O)c1cc(Nc2cc(C3CC3)[nH]n2)nc(N2CCN(Cc3ccc(S(=O)(=O)F)cc3)CC2)n1`, the pIC50 at JAK1 (cell material: Jurkat cells) was 5.18; at JAK1 (cell material: Jurkat lysate), below 4.52; at JAK1 (cell material: Lysate mix), below 4.52; at CDK9 (cell material: Jurkat cells), 6.24; on CDK9 (cell material: Jurkat lysate), 5.81; at CDK9 (cell material: Lysate mix) it was 6.16. In addition, the pIC50 at TP53RK (cell material: Jurkat cells), at TP53RK (cell material: Jurkat lysate), at TP53RK (cell material: Lysate mix), on TYK2 (cell material: Jurkat cells), at TYK2 (cell material: Jurkat lysate) and at TYK2 (cell material: Lysate mix) was below 4.52 throughout. The pIC50 on LYN (cell material: Jurkat lysate) is 5.41; on LYN (cell material: Lysate mix) it was 6.03; on PCTK3 (cell material: Jurkat cells), 6.2; at PCTK3 (cell material: Jurkat lysate), below 4.52; at PCTK3 (cell material: Lysate mix), 5.2; at UniProt P07947 (cell material: Jurkat cells), 6.61. In addition, the pIC50 on UniProt P07947 (cell material: Jurkat lysate) is 5.84; on UniProt P07947 (cell material: Lysate mix), 6.62; at TGFBR1 (cell material: Jurkat cells), 5.75; on TGFBR1 (cell material: Jurkat lysate), 4.84; on TGFBR1 (cell material: Lysate mix), 5.46; at UniProt P48730 (cell material: Jurkat lysate) it was below 4.52. Further, the pIC50 is below 4.52 at UniProt P48730 (cell material: Lysate mix); 6.29 on MERTK (cell material: Jurkat cells); below 4.52 at MERTK (cell material: Jurkat lysate); 4.84 on MERTK (cell material: Lysate mix); 5.4 at EGFR.
